In patent publication US11033520B2, “Liposomal anticancer compositions” (IriSys, LLC, priority 2016, dated 2021):

How the values were obtained:
[1] = Total doxorubicin content, recovery and encapsulation efficiency of liposomal suspension (HPLC); format: physicochemical; details: 50:1 lipid/drug
Protocol: All HPLC was performed using an Agilent 1260 Infinity system, equipped with a G13110B pump, 01329B autosampler, G1316A column compartment, and a G1315D diode-array detector. OpenLab CDS (EZChrom edition) software controlled all modules and was used for analysis and reporting of chromatography. A Phenomenex Luna C18 column (5μ, 150×4.6 mm; part #00G-4252-E0) was used for all analyses.
Chromatographic analysis of doxorubicin (DOX) was performed on the Agilent 1260 Infinity system using a C18 column (see above) with a column temperature of 40° C. and sample temperature at ambient conditions (˜25° C.). All mobile phase reagents were filtered with a 0.45 μm filter membrane prior to use. HPLC grade acetonitrile was from EMD Millipore. […] Mobile phase flow rate was set to 1.0 mL/min with a run time of 15 minutes. The diode array detector was operated at 487 nm with a bandwidth of 4 nm. Injection volume was set to 10 μL.
Standard stock solution of doxorubicin was prepared in a 0.9% saline, or methanol, or water solution (1 mg/mL). Calibration standards were prepared by diluting the stock solution in anhydrous methanol to bracket the target concentration for analysis. For this study, the doxorubicin solution was diluted with anhydrous methanol or IPA to the final concentration 50 μg/mL, 100 μg/mL and 200 μg/mL; respectively. Samples of liposomal suspension were also diluted with anhydrous methanol or IPA by a factor of 8 or 10 times prior to analysis.
Determination of doxorubicin in liposomal suspension. Followed doxorubicin loading liposomal suspension was subjected to 5× TFF to majorly remove free (not encapsulated) doxorubicin. To determine total doxorubicin concentration at TO (within one week of MFD) TFF washed liposomes were diluted with methanol or IPA and subjected to HPLC analysis. Doxorubicin content, percent of recovery (doxorubicin content in liposomal suspension relative to doxorubicin free base concentration used for remote loading), and encapsulation efficiency (%) are presented in the Table 9. Encapsulation efficiency (%) represents the difference between doxorubicin recovery (%) and free doxorubicin (%).

[2] = counter ion; cited from earlier work
[3] = system: Hela cells; assay: cells; format: cell-based; details: Homo sapiens, read-out: Hela, CC50, μM
Protocol: Hela cells (HeLa (ATCC CCL-2). Cells were plated in 96 well plates at the density 25K cells per well. Doxorubicin hydrochloride, Doxil®, or doxorubicin oxalate liposomes were appropriately diluted in Growth medium (DMEM, 5% FBS, 1% antibiotic, 1% HEPES) and added to the cells. After 1 hr of incubation at 37° C. plates were centrifuged, supernatant was removed via aspiration, 100 μL of fresh media were added into each well, and cells were cultured for 48 hrs.
(§1) On the day, 3 to assess cell viability, Alamar Blue solution was prepared in Growth medium (RPMI-1640, 10% FBS) at 1:250 dilution and added directly into cell media. After 6 hrs of incubation at 37° C. the resulting fluorescence was read on a plate reader. The fluorescence of cells that have not received any drug treatment was defined as maximum viability. The fluorescence of cell free media was defined as complete cell death. Data analysis was performed by using Prism nonlinear regression software (GraphPad Software) for the curve-fitting and determination of IC50 values.

[4] = system: nucleus; details: within 8 h after administration; cited from earlier work
[5] = system: Daudi cells; assay: In vitro cell-based cytotoxicity assay (Alamar Blue), Daudi cells; details: Homo sapiens, 1 hr exposure, 48 hrs culture
Protocol: Daudi cells (ATCC, CCL-213). Cells were plated in 96 well plates at the density 100K cells per well. Doxorubicin hydrochloride, Doxil®, or doxorubicin oxalate liposomes were appropriately diluted in Growth medium (RPMI-1640, 10% FBS) and added to the cells. After 1 hr of incubation at 37° C. plates were centrifuged, supernatant was removed via aspiration, 100 μL of fresh media were added into each well, and cells were cultured for 48 hrs.
as §1

[6] = system: Human B lymphoma cell line Ramos (RA 1); assay: In vivo study: B lymphoma model in SCID Beige mice; details: 3 mg doxorubicin/kg iv x3
Protocol: On the same day prior to administration into animals cell were counted, centrifuged at 12000 rpm, washed with sterile PBS, centrifuged again at 1200 rpm, resuspended in sterile PBS to the final cell count 35×10-per mL. Suspension of cells was administered into animals intravenously via single bolus injection to deliver 5×10^6 cells per mouse.
Four weeks old immune deficient SCID Beige, (Line—CB17.Cg-Prkdc^scidLyst^bg-J/Crl) mice were maintained on Chow diet. At the age of 8 weeks mice were subdivided in 3 groups. On the day 1, 5×10^6 B lymphoma cells were intravenously injected into each mouse (FIG. 2). […] On the day 2 and 3 all treatments were repeated (FIG. 2). Animals were monitored daily and weighed twice a week.
Treatment articles were administered intravenously in 120 μL via single bolus injection to deliver 60 μg of doxorubicin per mouse or ˜3 mg/kg dose.

| SMILES | doxorubicin loading into liposomes with this counter ion (in words) ([1]; remote loading at 70° C.) | further results |
| --- | --- | --- |
| O=C(O)/C=C/C(=O)O [Fumarate] | no doxorubicin loading was observed |  |
| CC(=O)N[C@@H](CS)C(=O)O [N-Acetyl- L-cysteine] | no doxorubicin loading was observed | pKa 1 [2]: 3.82; doxorubicin loading into liposomes with this counter ion (in words) ([1]; cold loading at room temperature): no doxorubicin loading was observed |
| O=C(O)CC(=O)O [Malonate] | no doxorubicin loading was observed |  |
| O=C(O)/C=C\C(=O)O [Maleate] | no doxorubicin loading was observed |  |
| O=C(O)c1ccccn1 [Picolinate] | no doxorubicin loading was observed |  |
| N[C@@H](CS)C(=O)O [Cysteinate] | no doxorubicin loading was observed | pKa 1 [2]: 1.96; pKa 2 [2]: 8.18 |
| O=C(O)CCC(=O)O [Succinate] | no doxorubicin loading was observed |  |
| COc1cccc2c1C(=O)c1c(O)c3c(c(O)c1C2=O)C[C@@](O)(C(=O)CO)C[C@@H]3O[C@H]1C[C@H](N)[C@H](O)[C@H](C)O1.Cl [Doxorubicin Hydrochloride, Doxorubicin hydrochloride] |  | CC50 [3]: 7 µM; drug translocated to / entered the nucleus [4]: 26%; CC50 [5]: 0.4 µM; survival compared to Placebo (in words) [6]: survivors demonstrated longest MST; death rate ([6]; day 13): 50% |
| O=C1O[C@H]([C@@H](O)CO)C(O)=C1O [Ascorbate] | no doxorubicin loading was observed |  |
| O=CO [Formate] | no doxorubicin loading was observed |  |
| CC(=O)O [Acetate] | no doxorubicin loading was observed |  |
